We go through three compounds from patent US20040014794A1, “Use of hydroxypyridone-derivatives in wound healing” (priority 2002, published 2004).

Structures can show the parent of a compound that is named as a salt. Where two headings read alike, the source gives them in different places.

Data set [1] concerns HIF-1 target genes VEGF, glucose transporter-1 (Glut-1) and aldolase. Nature of the data set: Northern blotting of mRNA of endogenous HIF-1 target genes in HepG2 cells. Type of data set: cell-based, human. The following applies: HepG2 cells treated for 24, 48 and 72 hours; control genes L28 and β-actin not induced. The procedure: (§1) The HRCHO5 cells containing a stable transfected, HIF-1-dependent reporter gene were described previously (Wanner, R. M., et al. (2000), Epolones Induce Erythropoietin Expression Via Hypoxia-Inducible Factor-1α Activation, Blood 96, 1558-1565). The human HepG2 hepatoma cell line was obtained from American Type Culture Collection (ATCC numbers HB-8065). All cell lines were cultured in Dulbecco's modified Eagle's medium (DMEM, high glucose, Life Technologies) supplemented with 10% heat-inactivated FCS, 100 U/ml penicillin, 100 μg/ml streptomycin, 1× non-essential amino acids and 1 mM Na-pyruvate (all purchased from Life Technologies) in a humidified atmosphere containing 5% CO2 at 37° C. Oxygen partial pressures in the incubator (Forma Scientific, model 3131) were either 140 mm Hg (20% 02 v/v, normoxia) or 7 mm Hg (1% O2 v/v, hypoxia). Ciclopirox olamine (CPX), deferoxamine mesylate (DFX) and 2,2′-dipyridyl (DP) were purchased from Sigma. Stock solutions of CPX and DP were prepared in methanol at 0.5 M and 1 M, respectively. DFX was freshly dissolved at 10 mM into the cell culture medium.

Another data set relates to HIF-1. The note with it: systemically administered, mice; cited from earlier work.
Another data set relates to HIF-1α protein. Briefly: HIF-1α protein induction in HepG2 hepatoma cells. It counts as cell-based, human. The following applies: for HIF-1α levels, combination with hypoxia: CPX plus hypoxia (1% O2). The procedure: as §1
In a further data set the test system is VEGF protein. Briefly: Accumulation of VEGF protein in the supernatant of the HepG2 cell culture. It counts as cell-based, human. The note with it: following 6 or 24 hours of treatment. The procedure: as §1
Another data set relates to VEGF promoter. Briefly: VEGF promoter-driven luciferase reporter gene assay in transiently transfected HepG2 cells. It counts as cell-based, human. The note with it: increasing concentrations of CPX for 24 hours. The procedure: The HRCHO5 cells containing a stable transfected, HIF-1-dependent reporter gene were described previously (Wanner, R. M., et al. (2000), Epolones Induce Erythropoietin Expression Via Hypoxia-Inducible Factor-1α Activation, Blood 96, 1558-1565). The human HepG2 hepatoma cell line was obtained from American Type Culture Collection (ATCC numbers HB-8065). All cell lines were cultured in Dulbecco's modified Eagle's medium (DMEM, high glucose, Life Technologies) supplemented with 10% heat-inactivated FCS, 100 U/ml penicillin, 100 μg/ml streptomycin, 1× non-essential amino acids and 1 mM Na-pyruvate (all purchased from Life Technologies) in a humidified atmosphere containing 5% CO2 at 37° C. […]
HepG2 cells were transiently electroporated with a VEGF promoter-driven luciferase construct as described previously (Ikeda, E., et al. (1995), Hypoxia-Induced Transcriptional Activation and Increased mRNA Stability of Vascular Endothelial Growth Factor in C6 Glioma Cells, J. Biol. Chem. 270, 19761-19766). Following stimulation, transiently and stable transfected cells were lysed in passive lysis buffer (Promega) and the luciferase activity was determined using a luciferase assay kit according to the manufacturer's instructions (Promega) in a 96-well luminometer (MicroLumat LB96P, EG&G Berthold). […] Absorbances at 570 nm were determined in a 96-well photometer (Rainbow, SLT Labsystems). […]
For orientation: Reporter assays use an easily measured gene product as a stand-in for the process of interest.

For the next data set, the system named is isolated rat kidneys. Briefly: Isolated perfused rat kidney (ex vivo model). The text has this: Systemically administered DFX can induce ubiquitous HIF-1 stability and kidney-specific erythropoietin expression in mice (Wang, G. L., and Semenza, G. L. (1993), Desferrioxamine Induces Erythropoietin Gene Expression and Hypoxia-Inducible Factor 1 DNA-Binding Activity: Implications for Models of Hypoxia Signal Transduction, Blood 82, 3610-3615). Regarding a topical application of CPX as a HIF-1-inducing agent for therapeutic angiogenesis, it was important to test whether CPX could lead to a systemic induction of VEGF. […]

The test system of data set [2] is chicken chorioallantoic membrane (CAM). The procedure: CAM assays were performed as described by Olivo, M. et al. (A Comparative Study on The Effects of Tumor Necrosis Factor-A (TNF-α), Human Angiogenic Factor (h-AF) and Basic Fibroblast Growth Factor (bFGF) on the Chorioallantoic Membrane of the Chick Embryo, (1992) Anat. Rec. 234, 105-115). Briefly, fertilized eggs (purchased from Lohmann Tierzucht, Cuxhaven, Germany) were incubated at 37° C. in a humidified atmosphere. The eggs were kept on their sides and turned upside down twice a day. After 6 days, a small hole was drilled through the shell into the air sac (visualized using a strong light source) and a window of approximately 0.5 cm^2 was sawed into the side of the egg. The window was sealed with tape and the eggs were reincubated until day 9, when 6-cyclohexyl-1-hydroxy-4-methyl-2(1H)-pyridone 2-aminoethanol salt (CPX) was applied to the CAM using the Elvax® method (see Olivo, M. et al. above). Therefore, ethylene/vinyl acetate copolymer beads (Elvax®) 40L-03, DuPont, provided by C. H. Erbslöh KG, Krefeld, Germany) were extensively washed in ethanol and dried under reduced pressure. The Elvax® beads were then dissolved in methylene chloride at 10% (w/v) and CPX was added to the desired concentration. One drop (40 μL) of this solution was pipetted onto a siliconized glass slide and the solvent was allowed to evaporate completely. Using forceps, the Elvax® disc was carefully lifted from the glass slides and placed onto the CAM. At day 11, the window was enlarged and the CAM was documented using a digital camera (Olympus) coupled to an ocular of a stereomicroscope.
Therefore, the chicken CAM at day 9 of development was overlaid with inert polymer discs containing various concentrations of CPX or solvent only.

Data set [3] concerns gram-positive and gram-negative bacteria. The note with it: cited from earlier work.
In a further data set the test system is rabbit skin. The following applies: 1% CPX solution applied on rabbit skin over 20 days; cited from earlier work.
For another data set, the system named is NMRI mice. Nature of the data set: Mouse skin wound model (punch-through ear holes). The following applies: dermal cream containing 1% CPX, daily.
[4] abbreviates: higher CPX concentrations (33 μM and 100 μM).
The mark [5] stands for this setting: perfused 3 hours, normoxic, 0.1 μM to 100 μM.

Experimental for NMRI mice: Both ears of adult NMRI mice were wounded under anesthesia with 100 mg/kg ketamine (Narketan®) and 5 mg/kg xylazine (Rompun®) by punch-through holes of 2 mm diameter using a standard ear-punching tool. The ears were treated daily with a common skin cream containing (Batrafen®) or not containing 1% (w/v) CPX. One ear was treated with CPX and the other ear with the control cream. The amount of cream was sufficient to cover the hole and was equally distributed over the entire ear.
Punch-through ear holes of 2 mm diameter (a widespread way of marking mice in animal facilities) were treated daily with a commercially available dermal cream containing 1% CPX on one ear and a CPX-free but otherwise identical common dermal cream on the other ear, respectively.

For `c1ccc(-c2ccccn2)nc1` [DP, 2,2′-dipyridyl], in [1], the “expression of VEGF mRNA” value is on record as “induced”, the “expression of aldolase mRNA” value is reported as “induced” and the “expression of glucose transporter-1 (Glut-1) mRNA” value (from here on “expression … (Glut-1) mRNA”) is “induced”.

On to `CC(=O)N(O)CCCCCNC(=O)CCC(=O)N(O)CCCCCNC(=O)CCC(=O)N(O)CCCCCN` [DFX, deferoxamine mesylate], for which, in data set [1], the “expression of VEGF mRNA” value is listed as “induced”, the “expression of aldolase mRNA” value is recorded as “induced” and the “expression … (Glut-1) mRNA” value is listed as “induced”. In the data set with HIF-1, the kidney-specific erythropoietin expression result is given as “can induce” and the “ubiquitous HIF-1 stability” value is listed as “can induce”.

With `Cc1cc(C2CCCCC2)n(O)c(=O)c1.NCCO` [CPX, 6-cyclohexyl-1-hydroxy-4-methyl-2(1H)-pyridone 2-aminoethanol salt], in the data set on HIF-1α protein (5 μM to 20 μM, normoxic HepG2 cells, after 6 and 24 hours of treatment), the HIF-1α protein entry is given as “strongly induced”. Besides, the “HIF-1α levels, combination with hypoxia” value in the data set on HIF-1α protein (after 6 hours) was “did not further increase”. Besides, the “HIF-1α levels, combination with hypoxia” value in the data set with HIF-1α protein (after 24 hours of treatment) is given as “decreased”. Besides, in [1], the “expression of VEGF mRNA” value is “induced”, the “expression of aldolase mRNA” value is “induced” and the “expression … (Glut-1) mRNA” value is “induced”. Also, the “VEGF protein in the supernatant” value in the data set on VEGF protein was “increased in a dose-dependent manner”. Further, the “luciferase activity (1180 bp VEGF promoter fragment)” value with VEGF promoter is given as “dose-dependent increase”. Moreover, in the data set with isolated rat kidneys (setting [4]), the “albumin and sodium excretion rates” value is “strong increase”; the kidney function result was “down regulation”. For the same compound, in the data set with isolated rat kidneys (setting [5]), the “Glut-1 mRNA level” value is “did not induce”, the “VEGF mRNA level” value is given as “did not induce” and the “aldolase mRNA level” value was “did not induce”. The “Glut-1 mRNA level under hypoxic perfusion” value with isolated rat kidneys (perfusion with 3% oxygen for 3 hours plus CPX) is given as “not further elevated”. Also, the “number of CAMs showing angiogenesis” value in data set [2] (50 mM CPX, all 7 control CAMs lacked angiogenesis) stood at 10. Moreover, the CAM angiogenesis entry in data set [2] (polymer discs containing 5 mM CPX) is “indistinguishable from the controls”. Moreover, the CAM angiogenesis result in [2] (polymer discs containing 50 mM CPX, two days of incubation) was “consistently induced CAM angiogenesis”. Moreover, the “toxicity to the chick embryo” value in data set [2] (polymer discs containing 500 mM CPX) is “toxic”. Moreover, in [3], the “effectiveness against gram-positive and gram-negative bacteria” value is “effective”. In the data set with rabbit skin, the “reddening of experimentally wounded skin” value is “persistent reddening” and the “reddening of healthy skin” value was “occasionally transient reddening”. In the data set with NMRI mice, the “animals showing reddening of the wound margin” value is on record as 4 of 10 and the “reddening of the wound margin” value is given as “can cause reddening”. For the same compound, in the data set with NMRI mice (ear holes of 2 mm diameter), the “angiogenesis in mouse skin wound model” value is on record as “can induce angiogenesis”.
